# Reference: patent publication US20250288603A1, “ANIMAL FOOD COMPOSITION COMPRISING A SOURCE OF GLYCYRRHIZIN” (MARS, INCORPORATED, priority 2022, published 2025)
# Key:
# healthy adult dogs [1] = test: Glycyrrhizin safety study: plasma aldosterone concentration; assay type: in vivo, dog; conditions: adult dogs, 0.2, 0.4 and 0.6 mg/kg Bwt/day, 28 days each
# Source text: (§1) Dogs. Sixteen privately owned healthy adult dogs, both male and female, were included in the study. In particular, the dogs were Beagles, Brittany spaniels or Dachshunds weighing between 5 and 21 kg. Twelve dogs were females and four dogs were males.
# (§2) Glycyrrhizin Source. The glycyrrhizin source was provided by a licorice root extract comprising 12% glycyrrhizin formulated in gelatin capsules. The licorice root extract was commercially obtained from Naturex (Avignon, France), product reference DAB40178.
# Commercially available pharmaceutical grade gelatin capsules (Capsuline, Dania Beach, Florida, US) were filled to capacity with precisely weight mixtures of licorice powder and 100% pure maltodextrin powder (Bulk Powders, Colchester, UK). […]
# Dosage. The doses to be administered to each dog were calculated based on five different bodyweight groups. […]
# Small volume blood samples (4 ml) were taken on the days indicated in the protocol description above in order to determine blood potassium, sodium and calcium, creatinine and aldosterone concentration. […] Urinary creatinine concentrations were also measured so that Fractional Excretion Rate (FER) for sodium, potassium and calcium could be calculated. […]
# healthy adult dogs [2] = test: Glycyrrhizin safety study: systolic blood pressure (oscillometric method); assay type: in vivo, dog; conditions: for effect on blood pressure, D0 versus any later time point: adult dogs, 0.2, 0.4 and 0.6 mg/kg Bwt/day, 28 days each; for overall mean systolic blood pressure: dogs
# Source text: as §1, §2
# (§3) Commercially available pharmaceutical grade gelatin capsules (Capsuline, Dania Beach, Florida, US) were filled to capacity with precisely weight mixtures of licorice powder and 100% pure maltodextrin powder (Bulk Powders, Colchester, UK). The weighed combinations of licorice and maltodextrin powders were prepared in such a way that, when mixed together and placed in the capsules, provided the dogs with daily glycyrrhizin doses according to the schedule of 0.2 mg/kg Bwt/day, followed by 0.4 mg/kg Bwt/day, followed by 0.6 mg/kg Bwt/day.
# (§4) Dosage. The doses to be administered to each dog were calculated based on five different bodyweight groups. Separate capsules were weighed out for each group. The licorice root extract was mixed with maltodextrin order to deliver the same volume of overall powdered material to each dog. Capsules were fed to the dogs inside a meatball of wet petfood.
# (§5) In total, three different doses of glycyrrhizin were fed to the dogs, in each case for 28 days. These dosages were 0.2 mg/kg of Bwt/day, 0.4 mg/kg of Bwt/day, and 0.6 mg/kg of Bwt/day.
# (§6) Each of the dogs underwent the following protocol cycle, which was repeated for each of the tested concentrations. The first cycle was dosed at 0.2 mg of glycyrrhizin (Gly)/kg Bwt/day. The second cycle was dosed at 0.4 mg Gly/kg Bwt/day. The third cycle was dosed at 0.6 mg Gly/kg Bwt/day.
# […]: Baseline measurements were taken: blood pressure and potassium, sodium and calcium, creatinine and aldosterone concentrations in the blood and urine.
# Day 0: Dosing of licorice began (the concentration of glycyrrhizin is adapted according to the first, second or third cycle of the protocol, as indicated above). One dose was provided to each dog per day, with their morning meal.
# Days 1-27: One dose was provided to each dog per day, with their morning meal.
# (§7) Days 2, 4, 7, 14, 21 and 28: Blood pressure and potassium, sodium and calcium, creatinine and aldosterone concentrations in the blood and urine measurements were taken.
# Day 28: Washout began and the dogs returned to their maintenance diet alone, i.e., no more licorice was fed to them. The washout period lasted two weeks. At days 34 and 41 blood pressure and potassium, sodium and calcium, creatinine and aldosterone concentrations in the blood and urine measurements were taken again.
# Protocol Details. The licorice root extract was dosed according to the given glycyrrhizin (Gly) concentrations for each cycle of the protocol in sequence: 0.2 mg/kg Bwt/day, 0.4 mg/kg Bwt/day, and 0.6 mg/kg Bwt/day.
# Blood pressure was measured for each animal on multiple occasions, the first reading being discarded. BP was measured via the Oscillometric method. Each measurement, if it was shown that a dog's average blood pressure has risen to a potentially deleterious level (normally >160 mmgHg), could result in removal of a dog from the study (temporarily or permanently), according to veterinarian's discretion. All dogs were habituated to the Oscillometic device and the process of BP measurement before the start of the study. If there was evidence of stress for any dog before or during the BP procedure, the procedure for that dog was stopped and restarted when the dog was calmed again. Where necessary a dog could be given interim intensive habituation. […] Typical blood pressure ranges for the 3 breeds used were known and were considered when judging the normality of the BP measurements taken during the study. […]
# healthy adult dogs [3] = test: Glycyrrhizin safety study: fractional potassium excretion; assay type: in vivo, dog; conditions: for effect on fractional potassium excretion, D0 versus any later time point: adult dogs, 0.2, 0.4 and 0.6 mg/kg Bwt/day, 28 days each; for overall mean fractional potassium excretion: dogs
# Source text: as §1, §2, §3, §4, §5, §6, §7
# Small volume blood samples (4 ml) were taken on the days indicated in the protocol description above in order to determine blood potassium, sodium and calcium, creatinine and aldosterone concentration. Free catch urine (minimum 3 ml) was conducted on each day as indicated above in order to determine concentrations of urinary potassium, sodium and calcium. Urinary creatinine concentrations were also measured so that Fractional Excretion Rate (FER) for sodium, potassium and calcium could be calculated.
# FER is calculated according to the equation: […]
# Statistics: A linear mixed model was used for assessing the effect of Diet (Glycyrrhizin dose). Animal was modelled as random term. Tukey HSD was used for alpha correction for multiple comparisons. Level of significance was set at 5% for two-sided test.
# Fractional Potassium Excretion. The results are expressed in percentage of the potassium excreted in the urine as compared to the amount of potassium filtered and retained by the kidneys.
# [4] = dogs; cited from earlier work
# [5] = 0.2 mg Gly/kg Bwt/day oral, Day 0
# [6] = 0.2 mg Gly/kg Bwt/day oral, Day 2
# [7] = 0.2 mg Gly/kg Bwt/day oral, Day 4
# [8] = 0.2 mg Gly/kg Bwt/day oral, Day 7
# [9] = 0.2 mg Gly/kg Bwt/day oral, Day 14
# [10] = 0.2 mg Gly/kg Bwt/day oral, Day 21
# [11] = 0.2 mg Gly/kg Bwt/day oral, Day 28
# [12] = 0.4 mg Gly/kg Bwt/day oral, Day 0
# [13] = 0.4 mg Gly/kg Bwt/day oral, Day 2
# [14] = 0.4 mg Gly/kg Bwt/day oral, Day 4
# [15] = 0.4 mg Gly/kg Bwt/day oral, Day 7
# [16] = 0.4 mg Gly/kg Bwt/day oral, Day 14
# [17] = 0.4 mg Gly/kg Bwt/day oral, Day 21
# [18] = 0.4 mg Gly/kg Bwt/day oral, Day 28
# [19] = 0.6 mg Gly/kg Bwt/day oral, Day 0
# [20] = 0.6 mg Gly/kg Bwt/day oral, Day 2
# [21] = 0.6 mg Gly/kg Bwt/day oral, Day 4
# [22] = 0.6 mg Gly/kg Bwt/day oral, Day 7
# [23] = 0.6 mg Gly/kg Bwt/day oral, Day 14
# [24] = 0.6 mg Gly/kg Bwt/day oral, Day 21
# [25] = 0.6 mg Gly/kg Bwt/day oral, Day 28
smiles,measurement,setting,value
"CC1(C)[C@@H](O[C@H]2O[C@H](C(=O)O)[C@@H](O)[C@H](O)[C@H]2O[C@@H]2O[C@H](C(=O)O)[C@@H](O)[C@H](O)[C@H]2O)CC[C@]2(C)[C@H]3C(=O)C=C4[C@@H]5C[C@@](C)(C(=O)O)CC[C@]5(C)CC[C@@]4(C)[C@]3(C)CC[C@@H]12 [Gly, glycyrrhizin]","effect on plasma aldosterone concentration, D0 versus any later time point",healthy adult dogs [1],no significant difference
same,"effect on plasma aldosterone concentration, D0 versus any later time point",healthy adult dogs [1]; listed as Glycyrrhizin,no significant impact
same,"effect on blood pressure, D0 versus any later time point",healthy adult dogs [2],no significant difference
same,"effect on blood pressure, D0 versus any later time point",healthy adult dogs [2]; listed as Glycyrrhizin,no significant impact
same,overall mean systolic blood pressure,healthy adult dogs [2]; [5],120 mmHg
same,overall mean systolic blood pressure,healthy adult dogs [2]; [6],127 mmHg
same,overall mean systolic blood pressure,healthy adult dogs [2]; [7],125 mmHg
same,overall mean systolic blood pressure,healthy adult dogs [2]; [8],126 mmHg
same,overall mean systolic blood pressure,healthy adult dogs [2]; [9],126 mmHg
same,overall mean systolic blood pressure,healthy adult dogs [2]; [10],122 mmHg
same,overall mean systolic blood pressure,healthy adult dogs [2]; [11],121 mmHg
same,overall mean systolic blood pressure,healthy adult dogs [2]; [12],118 mmHg
same,overall mean systolic blood pressure,healthy adult dogs [2]; [13],117 mmHg
same,overall mean systolic blood pressure,healthy adult dogs [2]; [14],119 mmHg
same,overall mean systolic blood pressure,healthy adult dogs [2]; [15],125 mmHg
same,overall mean systolic blood pressure,healthy adult dogs [2]; [16],122 mmHg
same,overall mean systolic blood pressure,healthy adult dogs [2]; [17],120 mmHg
same,overall mean systolic blood pressure,healthy adult dogs [2]; [18],124 mmHg
same,overall mean systolic blood pressure,healthy adult dogs [2]; [19],125 mmHg
same,overall mean systolic blood pressure,healthy adult dogs [2]; [20],119 mmHg
same,overall mean systolic blood pressure,healthy adult dogs [2]; [21],123 mmHg
same,overall mean systolic blood pressure,healthy adult dogs [2]; [22],125 mmHg
same,overall mean systolic blood pressure,healthy adult dogs [2]; [23],123 mmHg
same,overall mean systolic blood pressure,healthy adult dogs [2]; [24],124 mmHg
same,overall mean systolic blood pressure,healthy adult dogs [2]; [25],122 mmHg
same,"effect on fractional potassium excretion, D0 versus any later time point",healthy adult dogs [3],no significant difference
same,"effect on fractional potassium excretion, D0 versus any later time point",healthy adult dogs [3]; listed as Glycyrrhizin,no significant impact
same,overall mean fractional potassium excretion,healthy adult dogs [3]; [5],16.54%
same,overall mean fractional potassium excretion,healthy adult dogs [3]; [6],15.74%
same,overall mean fractional potassium excretion,healthy adult dogs [3]; [7],15.59%
same,overall mean fractional potassium excretion,healthy adult dogs [3]; [8],15.06%
same,overall mean fractional potassium excretion,healthy adult dogs [3]; [9],13.33%
same,overall mean fractional potassium excretion,healthy adult dogs [3]; [10],20.02%
same,overall mean fractional potassium excretion,healthy adult dogs [3]; [11],16.54%
same,overall mean fractional potassium excretion,healthy adult dogs [3]; [12],16.02%
same,overall mean fractional potassium excretion,healthy adult dogs [3]; [13],15.56%
same,overall mean fractional potassium excretion,healthy adult dogs [3]; [14],16.02%
same,overall mean fractional potassium excretion,healthy adult dogs [3]; [15],15.72%
same,overall mean fractional potassium excretion,healthy adult dogs [3]; [16],16.87%
same,overall mean fractional potassium excretion,healthy adult dogs [3]; [17],16.09%
same,overall mean fractional potassium excretion,healthy adult dogs [3]; [18],16.27%
same,overall mean fractional potassium excretion,healthy adult dogs [3]; [19],16.48%
same,overall mean fractional potassium excretion,healthy adult dogs [3]; [20],18.08%
same,overall mean fractional potassium excretion,healthy adult dogs [3]; [21],17.48%
same,overall mean fractional potassium excretion,healthy adult dogs [3]; [22],13.15%
same,overall mean fractional potassium excretion,healthy adult dogs [3]; [23],15.64%
same,overall mean fractional potassium excretion,healthy adult dogs [3]; [24],14.93%
same,overall mean fractional potassium excretion,healthy adult dogs [3]; [25],16.48%
same,Presumed Safe Intake (PSI),[4],1 mg/kg of complete feed
same,"Presumed Safe Intake (PSI), estimated amount per bodyweight",[4],~0.02 mg/kg of bodyweight (Bwt) per day
same,"Presumed Safe Intake (PSI), estimated daily amount",[4],~0.3 mg/day
